Among the data in US20110098325A1, “PYRIDINE BENZAMIDES AND PYRAZINE BENZAMIDES USED AS PKD INHIBITORS” (CANCER RESEARCH TECHNOLOGY LIMITED, priority 2006, published 2011) are IC50 values, retold here.

Each structure is given as a SMILES string.

This test addresses T1, Murine PKD1 kinase domain (Mus musculus, UniProt Q62101).
T1 construct: hexahistidine (pFastBac HTb leader) (N); made in house; host or cells: Sf9 insect cells, baculovirus (Bac-to-Bac HT, pFastBac HTb)
T1 sequence (Q62101 with tags, fused parts or gaps R683W): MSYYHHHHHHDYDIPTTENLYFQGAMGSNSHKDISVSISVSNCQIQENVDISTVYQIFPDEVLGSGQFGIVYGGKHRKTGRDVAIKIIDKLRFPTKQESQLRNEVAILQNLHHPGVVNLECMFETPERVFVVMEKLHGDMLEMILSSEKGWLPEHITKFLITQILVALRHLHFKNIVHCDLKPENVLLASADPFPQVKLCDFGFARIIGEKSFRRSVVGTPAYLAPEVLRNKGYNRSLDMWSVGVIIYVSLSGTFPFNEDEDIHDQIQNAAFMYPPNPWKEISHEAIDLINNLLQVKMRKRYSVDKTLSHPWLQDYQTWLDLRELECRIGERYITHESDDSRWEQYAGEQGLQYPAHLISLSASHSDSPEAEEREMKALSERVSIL
Description: PKD1 (Murine Kinase Domain) Enzyme Activity Assay (IMAP fluorescence polarisation). It counts as biochemical. The following applies: 10 μM ATP, 60 minutes, room temperature. From the text: The DNA sequence corresponding to murine PKD1 (see FIG. 1) was inserted into pFastBAc Htb (Invitrogen, USA) at BamH1 and EcoR1 sites using standard molecular biology techniques.
The PKD1 described above was expressed as a hexahistidine tagged protein construct using a commercially available baculoviral expression system that induces protein production in insect cell culture (Bac-to-Bac® HT Baculovirus Expression System, Invitrogen). Protein was typically expressed by inoculating 1 L of sf9 cells with a genetically modified baculovirus containing the gene for the kinase domain of PKD1. Sf9 cells were obtained from ICR Ltd.
Purification of PKD1 was achieved by standard chromatographic procedures. Capture from crude centrifuged lysed cell supernatant was achieved using metal affinity chromatography (GE Healthcare Life Sciences, HiTrap Chelating chromatography column), and fractions showing PKD1 (as assessed by gel electrophoresis and western blot) were further purified by a single polish purification step performed using a mono Q anion exchange chromatography system (GE Healthcare Life Sciences, HiTrap HP Q column). […] This protocol describes the method for screening compounds as inhibitors of Protein Kinase D activity in a 384 well microplate format fluorescence polarisation IMAP assay performed using the Biomek FX.
Kinase Enzyme: Murine PKD1 kinase domain at ˜100 μg/mL, was purified from baculovirus (as described above), obtained from aliquots stored at −70° C. PKD was prepared with a final concentration of 0.1 μg/mL by diluting 1:300 in Reaction Buffer (30 μL per 9 mL-5 mL per plate with an additional 4 mL dead volume) and vortexing prior to use. It was necessary to check this concentration regularly in case of enzyme degradation.
(also known as MAPKAP K2 substrate) was obtained from Molecular Devices (Product code R7127). It was used at 300 nM by diluting 20 μM stock 1:66 in Kinase/Reaction Buffer (135 μL per 9 mL; 75 μL per 5 mL Reaction Buffer for blank wells requiring <1 mL per place with an additional 4 mL dead volume).
A 1 mM ATP stock in Reaction Buffer was prepared from a 10 mM stock in 20 mM NaOH and stored as aliquots at −70° C. It was used at 40 μM by diluting 1 mM stock 1:25 in Reaction Buffer (240 μL per 6 mL-2 mL per plate with an additional 4 mL dead volume) and vortexing prior to use.
IMAP Reagents: IMAP Binding Reagent (product code R7207) and Binding Buffer (product code R7208) were obtained from Molecular Devices and stored at +4° C. The beads were gently re-suspended before diluting by 1:400 in buffer (Binding Buffer is supplied as a 5× stock and so was diluted with water prior to use) and then vortexing before addition to wells. 16 mL water with 4 mL Binding Buffer and 50 μL Binding Reagent were used per plate (17 mL per plate with an additional 3 mL dead volume).
13 μL Substrate in Reaction Buffer was added to ‘blank’ wells to give 200 nM reaction concentration. […] 2 μL 10% DMSO/water was added to ‘blank’ and ‘control’ wells. 5 μL ATP in Reaction Buffer was added to all wells to give 10 μM reaction concentration. The reaction mixture was then incubated at room temperature for 60 minutes. The incubation period was followed by the addition of 40 μL IMAP Binding Reagent in Binding Buffer to all wells. The reaction was then further incubated at room temperature for […].
Percentage inhibition was calculated based on activity of the test sample minus the average values in the blank wells relative to the average values measured in control wells minus the average values in the blank wells.
IC50 values were calculated from 10 point dose sigmoid ‘dose-response’ curves using Xlfit software (IDBS inc, USA). Data were fitted to a 4 parameter logistic model/sigmoidal dose response:
where: A=fit minimum (locked to 0); B=fit maximum (locked to 100); C=fit midpoint (pre-fit to 1); D=slope at linear portion of curve, hillslope (pre-fit to 0.1)
In general terms: Fluorescence polarisation rises when a labelled molecule tumbles more slowly, as on binding a larger partner.
`CN(C)CCNC(=O)c1cccc(-c2cnc(N)c(-c3ccc(OC4CCCCO4)cc3)c2)c1` (stereo not drawn) [Y-065, 3-{6-Amino-5-[4-(tetrahydro-pyran-2-yloxy)-phenyl]-pyridin-3-yl}-N-(2-dimethylamino-ethyl)-benzamide] registered an IC50 below 1000 nM. As for `NC(=O)c1cccc(-c2cnc(N)c(-c3ccc4[nH]ccc4c3)c2)c1` [Y-025, 3-[6-Amino-5-(1H-indol-5-yl)-pyridin-3-yl]-benzamide], the figure is below 1000 nM; as for `COc1cc(-c2cc(-c3cccc(C(=O)NCCN(C)C)c3)cnc2N)ccc1F` [Y-056, 3-[6-Amino-5-(4-fluoro-3-methoxy-phenyl)-pyridin-3-yl]-N-(2-dimethylamino-ethyl)-benzamide], below 1000 nM. Turning to `COc1cc(-c2cc(-c3cccc(C(=O)NCCN(C)C)c3)cnc2N)ncn1` [Y-093, 3-[6-Amino-5-(6-methoxy-pyrimidin-4-yl)-pyridin-3-yl]-N-(2-dimethylamino-ethyl)-benzamide], the IC50 was below 1000 nM. The value for `CN(C)CCNC(=O)c1cccc(-c2cnc(N)c(-c3cc4ccccc4o3)c2)c1` [Y-012, 3-(6-Amino-5-benzofuran-2-yl-pyridin-3-yl)-N-(2-dimethylamino-ethyl)-benzamide] was below 1000 nM; that for `COC(=O)c1ccc(-c2cc(-c3cccc(C(=O)NCCN(C)C)c3)cnc2N)cc1OC` [Y-066, 4-{2-Amino-5-[3-(2-dimethylamino-ethylcarbamoyl)-phenyl]-pyridin-3-yl}-2-methoxy-benzoic acid methyl ester] was below 1000 nM; that for `COc1ccc(-c2cc(-c3cccc(C(=O)NCCN(C)C)c3)cnc2N)cc1OC` [Y-035, 3-[6-Amino-5-(3,4-dimethoxy-phenyl)-pyridin-3-yl]-N-(2-dimethylamino-ethyl)-benzamide] was below 1000 nM.

In turn, `CN(C)CCNC(=O)c1cccc(-c2cnc(N)c(-c3ccc(-c4ccccc4)c(F)c3)c2)c1` [Y-031, 3-[6-Amino-5-(2-fluoro-biphenyl-4-yl)-pyridin-3-yl]-N-(2-dimethylamino-ethyl)-benzamide] displayed an IC50 below 1000 nM. Take `CN(C)CCNC(=O)c1cccc(-c2cnc(N)c(-c3cccc(Oc4ccccc4)c3)c2)c1` [Y-049, 3-[6-Amino-5-(3-phenoxy-phenyl)-pyridin-3-yl]-N-(2-dimethylamino-ethyl)-benzamide]: the IC50 was below 1000 nM. As for `COCc1cccc(-c2cc(-c3cccc(C(=O)NCCN(C)C)c3)cnc2N)c1` [Y-047, 3-[6-Amino-5-(3-methoxymethyl-phenyl)-pyridin-3-yl]-N-(2-dimethylamino-ethyl)-benzamide], the figure is 1000 to 10000 nM; as for `CN(C)CCNC(=O)c1cccc(-c2cnc(N)c(-c3ccc(CO)cc3)c2)c1` [Y-061, 3-[6-Amino-5-(4-hydroxymethyl-phenyl)-pyridin-3-yl]-N-(2-dimethylamino-ethyl)-benzamide], below 1000 nM; as for `NC(=O)c1cccc(-c2cnc(N)c(-c3ccoc3)c2)c1` [Y-016, 3-(6-Amino-5-furan-3-yl-pyridin-3-yl)-benzamide], below 1000 nM.

The compound `CN(C)CCNC(=O)c1cccc(-c2cnc(N)c(-c3ccc4cc(O)ccc4c3)c2)c1` [Y-082, 3-[6-Amino-5-(6-hydroxy-naphthalen-2-yl)-pyridin-3-yl]-N-(2-dimethylamino-ethyl)-benzamide] came in with an IC50 below 1000 nM. The value for `CN(C)CCNC(=O)c1cccc(-c2cnc(N)c(-c3ccc(-c4ccccc4)cc3F)c2)c1` [Y-045, 3-[6-Amino-5-(3-fluoro-biphenyl-4-yl)-pyridin-3-yl]-N-(2-dimethylamino-ethyl)-benzamide] was below 1000 nM; that for `CN(C)CCNC(=O)c1cccc(-c2cnc(N)c(-c3cccs3)c2)c1` [Y-024, 3-(6-Amino-5-thiophen-2-yl-pyridin-3-yl)-N-(2-dimethylamino-ethyl)-benzamide] was below 1000 nM. The value for `COc1cccc(-c2cc(-c3cccc(C(=O)N(C)CCN(C)C)c3)cnc2N)c1` [Y-075, 3-[6-Amino-5-(3-methoxy-phenyl)-pyridin-3-yl]-(2-dimethylamino-ethyl)-N-methyl-benzamide] was below 1000 nM; that for `CN(C)CCNC(=O)c1cccc(-c2cnc(N)c(-c3ccc(F)c(C(F)(F)F)c3)c2)c1` [Y-057, 3-[6-Amino-5-(4-fluoro-3-trifluoromethyl-phenyl)-pyridin-3-yl]-N-(2-dimethylamino-ethyl)-benzamide] was below 1000 nM. The value for `CN(C)CCNC(=O)c1cccc(-c2cnc(N)c(-c3cccc4ncccc34)c2)c1` [Y-022, 3-(6-Amino-5-quinolin-5-yl-pyridin-3-yl)-N-(2-dimethylamino-ethyl)-benzamide] was below 1000 nM; that for `CN(C)CCNC(=O)c1cccc(-c2cnc(N)c(-c3cccc(OCc4ccccc4)c3)c2)c1` [Y-038, 3-[6-Amino-5-(3-benzyloxy-phenyl)-pyridin-3-yl]-N-(2-dimethylamino-ethyl)-benzamide] was below 1000 nM. In the case of `CN(C)CCNC(=O)c1cccc(-c2cnc(N)c(-c3ccc4cc(O)ccc4c3)n2)c1` [X-023, 3-[5-Amino-6-(6-hydroxy-naphthalen-2-yl)-pyrazin-2-yl]-N-(2-dimethylamino-ethyl)-benzamide], the IC50 is below 1000 nM. With `CN(C)CCNC(=O)c1cccc(-c2cnc(N)c(-c3ccc(O)nc3)c2)c1` [Y-007, 3-(2-Amino-6′-hydroxy-[3,3′]bipyridinyl-5-yl)-N-(2-dimethylamino-ethyl)-benzamide], the IC50 is below 1000 nM. For `COc1cc(-c2cncc(-c3cccc(C(N)=O)c3)n2)ccc1O` [X-018, 3-[6-(4-Hydroxy-3-methoxy-phenyl)-pyrazin-2-yl]-benzamide], the IC50 is 1000 to 10000 nM.

`COc1cc(-c2cc(-c3cccc(C(=O)NCCN(C)C)c3)cnc2N)cc(OC)c1OC` [Y-088, 3-[6-Amino-5-(3,4,5-trimethoxy-phenyl)-pyridin-3-yl]-N-(2-dimethylamino-ethyl)-benzamide] gave an IC50 below 1000 nM. The value for `CCN(CC)CCNC(=O)c1cccc(-c2cnc(N)c(-c3cccc(OC)c3)c2)c1` [Y-096, 3-[6-Amino-5-(3-methoxy-phenyl)-pyridin-3-yl]-N-(2-diethylamino-ethyl)-benzamide] was below 1000 nM; that for `CN(C)CCNC(=O)c1cccc(-c2cnc(N)c(-c3cccc(Cl)c3)c2)c1` [Y-040, 3-[6-Amino-5-(3-chloro-phenyl)-pyridin-3-yl]-N-(2-dimethylamino-ethyl)-benzamide] was below 1000 nM. As for `CC(=O)Nc1cccc(-c2cc(-c3cccc(C(=O)NCCN(C)C)c3)cnc2N)c1` [Y-076, 3-[5-(3-Acetylamino-phenyl)-6-amino-pyridin-3-yl]-N-(2-dimethylamino-ethyl)-benzamide], the figure is below 1000 nM. For the compound `CN(C)CCNC(=O)c1cccc(-c2cnc(N)c(-c3ccc4c(c3)CCO4)c2)c1` [Y-028, 3-[6-Amino-5-(2,3-dihydro-benzofuran-5-yl)-pyridin-3-yl]-N-(2-dimethylamino-ethyl)-benzamide], the concentration for half-maximal inhibition (IC50) was below 1000 nM.

A word on the IC50: it is the concentration needed to halve the response being measured. Read a low IC50 as higher potency.
